Measurements reported in ChEMBL document CHEMBL5108042, “Design and synthesis of eugenol/isoeugenol glycoconjugates and other analogues as antifungal agents against Aspergillus fumigatus” (RSC Med Chem, 2022).
pIC50: −log10 of the molar value. Values after ≈ are worked out from the molar mass of the structure shown. Active and inactive are the calls of the source. No cut-off for these calls is given here.

Tests used:
Aspergillus fumigatus [1] = assay: Antifungal activity against Aspergillus fumigatus ATCC 46645 assessed as decrease in DHN-melanin content by measuring absorption spectra at optical density 275 nm at IC50 concentration incubated for 5 days by UV-vis spectrophotometric analysis; assay type: functional; conditions: time 5 day
Aspergillus fumigatus [2] = assay: Antifungal activity against Aspergillus fumigatus ATCC 46645 assessed as inhibition of conidial and mycelial growth incubated for 5 days by CLSI protocol based microbroth dilution method; assay type: functional; conditions: ATCC 46645, 120 h, time 5 day
Aspergillus fumigatus [3] = assay: Antifungal activity against Aspergillus fumigatus ATCC 46645 assessed as inhibition of fungal growth incubated for 5 days by CLSI protocol based microbroth dilution method; assay type: functional, organism-based; conditions: ATCC 46645, 120 h
[4] = Cytotoxicity against human L132 cells assessed as inhibition of cell growth; assay type: toxicity, cell-based
Aspergillus fumigatus [5] = assay: Antifungal activity against Aspergillus fumigatus ATCC 46645 assessed as decrease in conidia formation at IC50 concentration by UV-vis spectrophotometric analysis; assay type: functional, organism-based
Aspergillus fumigatus [6] = assay: Antifungal activity against Aspergillus fumigatus ATCC 46645 assessed as smooth conidial surface with absence of protrusions at IC50 concentration by scanning electron microscopic analysis; assay type: functional, organism-based
Aspergillus fumigatus [7] = assay: Antibiofilm activity against Aspergillus fumigatus ATCC 46645 at 243.60 to 304.5 uM incubated for 24 hrs by MTT assay; assay type: functional, organism-based; conditions: dose 243.6-304.5 µM
[8] = Cytotoxicity against human L132 cells assessed as inhibition of cell growth incubated for 24 hrs by MTT assay; assay type: toxicity, cell-based
Aspergillus fumigatus [9] = assay: Antifungal activity against Aspergillus fumigatus ATCC 46645 assessed as decrease in number of conidia at IC50 concentration by scanning electron microscopic analysis; assay type: functional, organism-based
Aspergillus fumigatus [10] = assay: Antifungal activity against Aspergillus fumigatus ATCC 46645 assessed as absence of melanin layer at IC50 concentration by transmission electron microscopic analysis; assay type: functional, organism-based
[11] = Selectivity index, ratio of CC50 for cytotoxicity against human L-132 cells assessed as inhibition of cell growth to IC50 for antifungal activity against Aspergillus fumigatus ATCC 46645 assessed as inhibition of fungal growth; assay type: toxicity, cell-based; conditions: read-out: Ratio IC50
Aspergillus fumigatus [12] = assay: Antibiofilm activity against Aspergillus fumigatus ATCC 46645 assessed as absence of ECM on hyphae at 243.60 to 304.5 uM; assay type: functional, organism-based; conditions: dose 243.6-304.5 µM
Aspergillus fumigatus [13] = assay: Antifungal activity against Aspergillus fumigatus ATCC 46645 assessed as decrease in DHN-melanin content at IC50 concentration incubated for 5 days by UV-vis spectrophotometric analysis; assay type: functional, organism-based; conditions: time 5.0 day
Cell membrane = assay: Induction of cell membrane disruption in Aspergillus fumigatus ATCC 46645 assessed as accumulation of cytoplasmic content at IC50 concentration by transmission electron microscopic analysis; assay type: subcellular
Aspergillus fumigatus [14] = assay: Antibiofilm activity against Aspergillus fumigatus ATCC 46645 at 69.53 to 86.92 uM incubated for 24 hrs by MTT assay; assay type: functional, organism-based; conditions: dose 69.53-86.92 µM
Aspergillus fumigatus [15] = assay: Antibiofilm activity against Aspergillus fumigatus ATCC 46645 assessed as absence of ECM on hyphae at 69.53 to 86.92 uM; assay type: functional, organism-based; conditions: dose 69.53-86.92 µM

Compound C[C@@H]1[C@H](O)[C@@H](C)/C=C/C=C/C=C/C=C/C=C/C=C/C=C/[C@H](O[C@@H]2O[C@H](C)[C@@H](O)[C@H](N)[C@@H]2O)C[C@@H]2O[C@](O)(C[C@@H](O)C[C@@H](O)[C@H](O)CC[C@@H](O)C[C@@H](O)CC(=O)O[C@H]1C)C[C@H](O)[C@H]2C(=O)O [AMPHOTERICIN B] has an Activity (Aspergillus fumigatus [1]) of 1.126, an MIC (Aspergillus fumigatus [2]) of 0.216 µM (≈ 0.2 µg/mL) and a pIC50 (Aspergillus fumigatus [3]) of 5.97. For the same compound, the CC50 [4] was 5.4 µM.

With C=CCc1ccc(OCc2cn([C@@H]3O[C@H](COC(C)=O)[C@H](OC(C)=O)[C@H](OC(C)=O)[C@H]3OC(C)=O)nn2)c(OC)c1 the MIC (Aspergillus fumigatus [2]) was > 20 µM and the pIC50 (Aspergillus fumigatus [3]) was 4.96.

In the case of COc1cc(C[C@H](O)CN=[N+]=[N-])ccc1O[Si](C)(C)C(C)(C)C, the MIC (Aspergillus fumigatus [2]) was > 20 µM and the pIC50 (Aspergillus fumigatus [3]) was < 4.60.

For C/C=C/c1ccc(OCc2cn([C@@H]3O[C@H](COC(C)=O)[C@@H](O[C@H]4O[C@H](COC(C)=O)[C@@H](OC(C)=O)[C@H](OC(C)=O)[C@H]4OC(C)=O)[C@H](OC(C)=O)[C@H]3OC(C)=O)nn2)c(OC)c1, the MIC (Aspergillus fumigatus [2]) was > 20 µM and the pIC50 (Aspergillus fumigatus [3]) was 4.84.

For CCCc1ccc(O)c(OC)c1, the Activity (Aspergillus fumigatus [5]) was “Active”, the Activity (Aspergillus fumigatus [6]) was “Active” and the Activity (Aspergillus fumigatus [7]) was “Active”. For the same compound, the Activity (Aspergillus fumigatus [1]) was 0.176, the CC50 at 24 h [8] was 150 µM and the MIC (Aspergillus fumigatus [2]) was 15.5 µM (≈ 2.58 µg/mL). The Activity (Aspergillus fumigatus [9]) was “Active”, the Activity (Aspergillus fumigatus [10]) was “Active” and the selectivity ratio [11] was 16. For the same compound, the pIC50 (Aspergillus fumigatus [3]) was 5.03, the Activity (Aspergillus fumigatus [12]) was “Active” and the Activity (Aspergillus fumigatus [13]) was “Active”. For the same compound, the Activity (Cell membrane) was “Active”.

In the case of C/C=C/c1ccc(OCc2cn([C@@H]3O[C@H](COC(C)=O)[C@@H](O[C@@H]4O[C@H](COC(C)=O)[C@H](OC(C)=O)[C@H](OC(C)=O)[C@H]4OC(C)=O)[C@H](OC(C)=O)[C@H]3OC(C)=O)nn2)c(OC)c1, the MIC (Aspergillus fumigatus [2]) was > 20 µM and the pIC50 (Aspergillus fumigatus [3]) was 4.84.

For C=CCc1ccc(O[Si](C)(C)C(C)(C)C)c(OC)c1, the MIC (Aspergillus fumigatus [2]) was > 20 µM and the pIC50 (Aspergillus fumigatus [3]) was < 4.60.

For CCCc1ccc(OCc2cn([C@@H]3O[C@H](COC(C)=O)[C@@H](OC(C)=O)[C@H](OC(C)=O)[C@H]3OC(C)=O)nn2)c(OC)c1, the MIC (Aspergillus fumigatus [2]) was > 20 µM and the pIC50 (Aspergillus fumigatus [3]) was < 4.60.

In the case of C#CCOc1ccc(/C=C/C)cc1OC, the MIC (Aspergillus fumigatus [2]) was > 20 µM and the pIC50 (Aspergillus fumigatus [3]) was < 4.60.

With CCCc1ccc(OCc2cn(C[C@@H](O)Cc3ccc(O[Si](C)(C)C(C)(C)C)c(OC)c3)nn2)c(OC)c1 the MIC (Aspergillus fumigatus [2]) was > 20 µM and the pIC50 (Aspergillus fumigatus [3]) was < 4.60.

In the case of C/C=C/c1ccc(OCc2cn(C[C@@H](O)Cc3ccc(O[Si](C)(C)C(C)(C)C)c(OC)c3)nn2)c(OC)c1, the MIC (Aspergillus fumigatus [2]) was > 20 µM and the pIC50 (Aspergillus fumigatus [3]) was < 4.60.

With C/C=C/c1ccc(OCc2cn([C@@H]3O[C@H](COC(C)=O)[C@H](OC(C)=O)[C@H](OC(C)=O)[C@H]3OC(C)=O)nn2)c(OC)c1 the MIC (Aspergillus fumigatus [2]) was > 20 µM and the pIC50 (Aspergillus fumigatus [3]) was 4.96.

With C/C=C/c1ccc(OCc2cn(C3O[C@@H](C)[C@H](OC(C)=O)[C@@H](OC(C)=O)[C@H]3OC(C)=O)nn2)c(OC)c1 (some centres not stated) the MIC (Aspergillus fumigatus [2]) was > 20 µM and the pIC50 (Aspergillus fumigatus [3]) was 4.92.

With C=CCc1ccc(OCc2cn([C@@H]3O[C@H](COC(C)=O)[C@@H](O[C@H]4O[C@H](COC(C)=O)[C@@H](OC(C)=O)[C@H](OC(C)=O)[C@H]4OC(C)=O)[C@H](OC(C)=O)[C@H]3OC(C)=O)nn2)c(OC)c1 the MIC (Aspergillus fumigatus [2]) was > 20 µM and the pIC50 (Aspergillus fumigatus [3]) was 4.84.

With C=CCc1ccc(OCc2cn([C@@H]3O[C@H](CO)[C@@H](O)[C@H](O)[C@H]3O)nn2)c(OC)c1 the MIC (Aspergillus fumigatus [2]) was > 20 µM and the pIC50 (Aspergillus fumigatus [3]) was < 4.60.

In the case of C/C=C/c1ccc(O)c(OC)c1, the Activity (Aspergillus fumigatus [6]) was “Active”, the Activity (Aspergillus fumigatus [1]) was 0.399 and the MIC (Aspergillus fumigatus [2]) was 3800 µM (≈ 624 µg/mL). For the same compound, the Activity (Aspergillus fumigatus [9]) was “Active”, the Activity (Aspergillus fumigatus [10]) was “Active” and the pIC50 (Aspergillus fumigatus [3]) was 2.72. For the same compound, the Activity (Cell membrane) was “Active”.

For C#CCOc1ccc(CCC)cc1OC, the MIC (Aspergillus fumigatus [2]) was > 20 µM and the pIC50 (Aspergillus fumigatus [3]) was < 4.60.

In the case of C=CCc1ccc(OCc2cn([C@@H]3O[C@H](COC(C)=O)[C@@H](O[C@@H]4O[C@H](COC(C)=O)[C@H](OC(C)=O)[C@H](OC(C)=O)[C@H]4OC(C)=O)[C@H](OC(C)=O)[C@H]3OC(C)=O)nn2)c(OC)c1, the MIC (Aspergillus fumigatus [2]) was > 20 µM and the pIC50 (Aspergillus fumigatus [3]) was 4.84.

In the case of C#CCOc1ccc(CC=C)cc1OC, the MIC (Aspergillus fumigatus [2]) was > 20 µM and the pIC50 (Aspergillus fumigatus [3]) was < 4.60.

In the case of C=CCc1ccc(OCc2cn([C@@H]3O[C@H](COC(C)=O)[C@@H](OC(C)=O)[C@H](OC(C)=O)[C@H]3OC(C)=O)nn2)c(OC)c1, the Activity (Aspergillus fumigatus [5]) was “Active”, the Activity (Aspergillus fumigatus [14]) was “Active” and the Activity (Aspergillus fumigatus [6]) was “Active”. For the same compound, the Activity (Aspergillus fumigatus [1]) was 0.295, the CC50 at 24 h [8] was 43.5 µM and the MIC (Aspergillus fumigatus [2]) was 10.9 µM (≈ 6.25 µg/mL). The Activity (Aspergillus fumigatus [9]) was “Active”, the Activity (Aspergillus fumigatus [10]) was “Active” and the selectivity ratio [11] was 8.01. The pIC50 (Aspergillus fumigatus [3]) was 5.27, the Activity (Aspergillus fumigatus [15]) was “Active” and the Activity (Aspergillus fumigatus [13]) was “Active”. For the same compound, the Activity (Cell membrane) was “Active”.

Compound C=CCc1ccc(O)c(OC)c1 [EUGENOL] has an MIC (Aspergillus fumigatus [2]) of 3800 µM (≈ 624 µg/mL) and a pIC50 (Aspergillus fumigatus [3]) of 2.72.

CCC(C)n1ncn(-c2ccc(N3CCN(c4ccc(OCC5COC(Cn6cncn6)(c6ccc(Cl)cc6Cl)O5)cc4)CC3)cc2)c1=O (configuration not stated) [ITRACONAZOLE] showed an MIC (Aspergillus fumigatus [2]) of 0.552 µM (≈ 0.39 µg/mL).

For CCCc1ccc(OCc2cn([C@@H]3O[C@H](CO)[C@H](O)[C@H](O)[C@@H]3O)nn2)c(OC)c1, the MIC (Aspergillus fumigatus [2]) was > 20 µM and the pIC50 (Aspergillus fumigatus [3]) was < 4.60.

For COc1cc(C[C@H](O)CO)ccc1O[Si](C)(C)C(C)(C)C, the MIC (Aspergillus fumigatus [2]) was > 20 µM and the pIC50 (Aspergillus fumigatus [3]) was < 4.60.

In the case of C/C=C/c1ccc(OCc2cn([C@@H]3O[C@H](COC(C)=O)[C@@H](OC(C)=O)[C@H](OC(C)=O)[C@H]3OC(C)=O)nn2)c(OC)c1, the MIC (Aspergillus fumigatus [2]) was > 20 µM and the pIC50 (Aspergillus fumigatus [3]) was 4.66.

For C/C=C/c1ccc(OCc2cn([C@@H]3O[C@H](COC(=O)c4ccccc4)[C@H](OC(=O)c4ccccc4)[C@H](OC(=O)c4ccccc4)[C@H]3OC(=O)c3ccccc3)nn2)c(OC)c1, the MIC (Aspergillus fumigatus [2]) was > 20 µM and the pIC50 (Aspergillus fumigatus [3]) was 4.82.

In the case of C=CCc1ccc(OCc2cn(C[C@@H](O)Cc3ccc(O[Si](C)(C)C(C)(C)C)c(OC)c3)nn2)c(OC)c1, the MIC (Aspergillus fumigatus [2]) was > 20 µM and the pIC50 (Aspergillus fumigatus [3]) was < 4.60.
